Measured values taken from patent US10675267B2, “Methods for detection and eradication of myeloid leukemia stem cells” (priority 2015, dated 2020).
Entries after “also recorded” stand apart in the source; their conditions may differ.

Test system: pFlare splicing reporter (MAPT exon 10) in HEK293 cells
Experiment: Dual fluorescence (RFP/GFP) alternative splicing reporter (pFlare) assay
Assay type: cell-based
Experimental: For evaluation of in vitro splicing activity using a two-color fluorescent splicing reporter system, HEK293T cells (mycoplasma-free authenticated cell lines obtained from ATCC) were grown in complete media (DMEM+10% FBS) and transfected with a series of fluorescent protein-expressing plasmids. Vector controls include pFlare5A, which expresses solely GFP, and pFlare5G, which expresses maximal RFP. The pFlare reporter contains microtubule-associated protein tau (MAPT) exon 10 as an indicator of alternative splicing. Under physiological conditions, the pFlare conditional reporter vector allows in-frame expression of GFP but not RFP. In the presence of splicing inhibitors, exon skipping favors production of RFP over GFP. […] Fluorescence was evaluated on a Leica fluorescent microscope (Sanford Consortium Stem Cell Core facility) and then analyzed by flow cytometry on a Miltenyi MACSQUANT® to assess transfection efficiency (ranging from over 70% at 24 hrs after transfection to approximately 20% at 48 hrs after transfection) and mean fluorescence intensity (MFI) of RFP and GFP in positive cells. In HEK293 cells transiently transfected with control GFP or RFP vectors, or the pFlare splicing reporter vector, the dynamic range of the assay as measured by MFI of GFP and RFP 48 hours after transfection ranged from 0.41-1.69 for RFP/GFP ratios (FIG. 6A). […]

## CC[C@H](OC)[C@@H](C)[C@H]1O[C@@H]1[C@@H](O)[C@H](C)/C=C/C=C(\C)[C@H]1OC(=O)C[C@H](O)CC[C@@](C)(O)[C@@H](OC(C)=O)/C=C/[C@@H]1C (stereo in doubt) [Formula 17S-FD-895, 17S-FD-895]
HEK293 cells, 0.01-10 μM, 24 hrs, flow cytometry MFI
  RFP/GFP ratios: dose-dependent increase
reporter-transfected HEK293 cells, 1-10 μM, live-cell / time-lapse
  RFP fluorescence by confocal microscopy: increase in RFP fluorescence; also recorded: increased RFP/GFP expression; also recorded: increased RFP fluorescence
